The values that follow come from patent US20100298348A1, “Method of Decreasing Ubiquitylated Protein Levels” (priority 2009, published 2010).

Like-named read-outs stand apart in the source and are kept apart here.

Assay [1] has as its system ADAM10. The assay can be described thus: Western blot of ADAM10 in 3xTg-AD mouse brain. It is filed as in vivo. To be noted: 3xTg-AD mice ~12 months old, 5 mg/kg/day, 2 months. Here is the method:
APP C-terminal fragments C99 and C83 are created by beta-secretase and alpha-secretase cleavage respectively. The reduction of both C99 and C83 induced by ST101 could therefore be due to reduction or inhibition of secretases. This hypothesis was tested using Western blots of brain extracts from 3xTg-AD mice from the initial experiment in 12-month-old animals treated with ST101 for 2 months. The only beta-secretase is BACE1 and the constitutive alpha-secretase is ADAM10.
Western blots were probed with antibodies against BACE1 and ADAM10. FIG. 11A is a series of Western blots depicting levels of proADAM10, ADAM10, proBACE, BACE, Presenilinl and APP-CFTs in brain extracts from ST101 treated 3×TG-AD mice (S) versus control mice (C). C: control brain extract. S: ST101-treated brain extract. Animals were approximately 12 months old at sacrifice after 2 months of treatment with ST101 at 5 mg/kg/day.

In a further assay the test system is ADAM17 (TACE). The assay can be described thus: Western blot of TACE in 3xTg-AD mouse brain. It is filed as in vivo. To be noted: 3xTg-AD mice ~14.5 months old, 5 mg/kg/day in drinking water, 2 months as printed. The procedure:
In addition to ADAM10, ADAM17 (TACE, which is Tumor Necrosis Factor converting enzyme) is known to act as an alpha-secretase of APP. Thus, it was tested in a Western blot whether ST101 reduces levels of ADAM17 (TACE).
The Western blot was obtained using a TACE specific antibody in brain extracts from ST101 treated 3×TG-AD mice (S) versus control mice (C). Animals were approximately 14.5 months old at sacrifice after 2 months of treatment with ST101 at 5 mg/kg/day in drinking water.

The test system of the next assay is APP. The experiment in a line: Western blot of APP fragments in cynomolgus monkey hippocampus, 9-month study. It counts as in vivo. Conditions: male cynomolgus monkeys, 9 months oral. The procedure: (§1) Male cynomolgus monkeys were treated for 9 months with 0, 10, 30 or 100 mg/kg/day ST101 with once daily oral drug administration. Hippocampal brain samples were analyzed in Western blots and ELISAs for APP fragments and Aβ. […] Reductions in a ˜55-kDa fragment were also seen with treatment in these groups. Black outlines depict image level enhancement in Adobe Photoshop CS4, to better visualize weak signals. […] However, long exposures reveal the presence of the 17-kDa APP fragment only in treated monkeys (antibody CT20, Calbiochem). This fragment was not detected in either the 30 or 10 mg/kg/day ST101 groups. Error bars indicate SEM (standard error of the mean) and * indicates statistical significance versus control (p<0.05). (S: ST101-treated animals, versus C: control animals).

The test system of the next assay is BACE. The experiment in a line: Western blot of BACE in cynomolgus monkey hippocampus. It is filed as in vivo. To be noted: male cynomolgus monkeys, 9 months oral, 100 mg/kg/day. The procedure: as §1
Assay [2] relates to ADAM10. The assay can be described thus: Western blot of ADAM10 in cynomolgus monkey hippocampus. To be noted: male cynomolgus monkeys, 9 months oral, 100 mg/kg/day. It counts as in vivo. Here is the method:
as §1

A further assay has as its system ubiquitylated proteins. The assay can be described thus: Anti-ubiquitin Western blot of C57/B6 wildtype mouse brain. It counts as in vivo. To be noted: C57/B6 wildtype mice, 5 mg/kg/day in drinking water, 2 months. Here is the method: Brain extracts from 2 month-old C57/B6 wildtype mice that had been treated with ST101 at 5/mg/kg/day in drinking water over 2 months were analyzed in Western blots using an anti-ubiquitin antibody (Dako no. Z0448).

Assay [3] relates to rodent models of learning and memory. Conditions: cited from earlier work.
A further assay concerns SAM-P8 mice. Conditions: vs control mice, cited from earlier work.

With `O=C1N=C2C=CC=CN2C12Cc1ccccc1C2` [ST101, spiro(imidazo[1,2-a]pyridin-2(3H)-one-3,2′-indan)], in the assay on ADAM10 [1], the ADAM-10 protein level entry was “not significantly affected”. The pro-ADAM10 protein level result in the assay on ADAM10 [1] was “profound reduction”. Also, the TACE levels result in the assay on ADAM17 (TACE) is “reduction of TACE levels in the majority of ST101 treated animals”. For the same compound, the “C83 APP fragment” value in the assay on APP (10 mg/kg/day) is “no differences”; with APP (30 mg/kg/day), “reductions”; with APP (100 mg/kg/day), “reductions”. For the same compound, the “C99 APP fragment” value in the assay with APP (10 mg/kg/day) is “no differences”; in the assay on APP (30 mg/kg/day), “reductions”; in the assay with APP (100 mg/kg/day), “reductions”. The “17-kDa APP fragment” value is “not detected” with APP (10 mg/kg/day, antibody CT20); “not detected” with APP (30 mg/kg/day, antibody CT20); “presence” in the assay with APP (100 mg/kg/day, antibody CT20, long exposures). Moreover, the “~55-kDa APP fragment” value in the assay on APP (30 mg/kg/day) and in the assay on APP (100 mg/kg/day) was “Reductions” in each case. Also, the BACE level result in the assay with BACE is “no differences”. For the same compound, in the assay on ADAM10 [2], the ADAM10 level entry is given as “no differences”. Besides, the ubiquitylated proteins entry in the assay with ubiquitylated proteins is “modest reduction”. In addition, in assay [3] (methamphetamine, MK-801, scopolamine), the “memory deficits induced by chemical amnesic agents” value is “attenuates”. In assay [3] (rodent models), the age-impaired memory result is “significantly improves”. Further, the senescence scores entry in the assay on SAM-P8 mice (16 weeks of treatment) and in the assay with SAM-P8 mice (32 weeks of treatment) was “significant improvement” throughout.
